# Read-outs that look alike come from different tables or passages of the source.
# Tests used:
# MV4;11 cells = assay: Cell viability assay (CellTiter-Glo) in MV4;11 cells, alone or with gilteritinib; type: cell-based; conditions: Homo sapiens, MV4-11, 72 h, MV4;11 cells, three days, CellTiter-Glo, read-out: MV4
# MOLM-13 cells = assay: Cell viability assay (CellTiter-Glo) in MOLM-13 cells, alone or with gilteritinib; type: cell-based; conditions: Homo sapiens, MOLM-13, 72 h, MOLM-13 cells, three days, CellTiter-Glo
# [1] = compound alone (without gilteritinib), 11 IC50
# [2] = with gilteritinib 10 nM, 11 IC50 gilteritinib
# [3] = compound alone (without gilteritinib), read-out: MOLM-13 IC50
# [4] = with gilteritinib 20 nM, read-out: MOLM-13 IC50 gilteritinib
SMILES,IC50 (MV4;11 cells; [1]) [nM],IC50 (MV4;11 cells; [2]) [nM],IC50 (MOLM-13 cells; [3]) [nM],IC50 (MOLM-13 cells; [4]) [nM]
"O=C1CCC(N2C(=O)c3ccc(NC[C@H]4C[C@H](n5cc(-c6cnc7ccc(CN8CCOCC8)cc7n6)c(C6CC6)n5)C4)cc3C2=O)C(=O)N1 (stereo partly drawn) [GS-067, 5-(((trans-3-(3-Cyclopropyl-4-(7-(morpholinomethyl)quinoxalin-2-yl)-1H-pyrazol-1-yl)cyclobutyl)methyl)amino)-2-(2,6-dioxopiperidin-3-yl)isoindoline-1,3-dione]",10 to 100,10 to 100,> 1000,10 to 100
"O=C1CCC(N2C(=O)c3ccc(NC[C@H]4C[C@H](n5cc(-c6cnc7ccc(CN8CCNCC8)cc7n6)c(C6CC6)n5)C4)cc3C2=O)C(=O)N1 (stereo partly drawn) [GS-068, 5-(((trans-3-(3-cyclopropyl-4-(7-(piperazin-1-ylmethyl)quinoxalin-2-yl)-1H-pyrazol-1-yl)cyclobutyl)methyl)amino)-2-(2,6-dioxopiperidin-3-yl)isoindoline-1,3-dione]",10 to 100,< 10,> 1000,10 to 100
"O=C1CCC(N2C(=O)c3ccc(NCCC[C@H]4C[C@H](n5cc(-c6ncccc6Cl)c(C6CC6)n5)C4)cc3C2=O)C(=O)N1 (stereo partly drawn) [GS-070, 5-((3-(trans-3-(4-(3-chloropyridin-2-yl)-3-cyclopropyl-1H-pyrazol-1-yl)cyclobutyl)propyl)amino)-2-(2,6-dioxopiperidin-3-yl)isoindoline-1,3-dione]",10 to 100,< 10,100 to 1000,< 10
"O=C1CCC(N2Cc3cc(Nc4ccnc(Nc5ccc6c(c5)CC(N5CCC(n7cc(-c8cnc9cccc(Br)c9n8)cn7)CC5)C6)n4)ccc3C2=O)C(=O)N1 (centres unmarked) [GS-072, 3-(5-((2-((2-(4-(4-(8-Bromoquinoxalin-2-yl)-1H-pyrazol-1-yl)piperidin-1-yl)-2,3-dihydro-1H-inden-5-yl)amino)pyrimidin-4-yl)amino)-1-oxoisoindolin-2-yl)piperidine-2,6-dione]",> 1000,100 to 1000,> 1000,100 to 1000
"O=C1CCC(N2Cc3cc(Nc4ccnc(Nc5ccc6c(c5)CC(N5CCC(n7cc(-c8cnc9ccccc9n8)cn7)CC5)C6)n4)ccc3C2=O)C(=O)N1 (centres unmarked) [GS-073, 3-(1-Oxo-5-((2-((2-(4-(4-(quinoxalin-2-yl)-1H-pyrazol-1-yl)piperidin-1-yl)-2,3-dihydro-1H-inden-5-yl)amino)pyrimidin-4-yl)amino)isoindolin-2-yl)piperidine-2,6-dione]",100 to 1000,10 to 100,100 to 1000,100 to 1000

# Continued, values first:
IC50 (MV4;11 cells; [1]) [nM],IC50 (MV4;11 cells; [2]) [nM],IC50 (MOLM-13 cells; [3]) [nM],IC50 (MOLM-13 cells; [4]) [nM],SMILES
10 to 100,< 10,10 to 100,< 10,"O=C1CCC(N2C(=O)c3ccc(NC[C@H]4C[C@H](n5cc(-c6cnc7cc(N8CCOCC8)ccc7n6)c(C6CC6)n5)C4)cc3C2=O)C(=O)N1 (stereo partly drawn) [GS-066, 5-(((trans-3-(3-Cyclopropyl-4-(6-morpholinoquinoxalin-2-yl)-1H-pyrazol-1-yl)cyclobutyl)methyl)amino)-2-(2,6-dioxopiperidin-3-yl)isoindoline-1,3-dione]"
10 to 100,< 10,100 to 1000,10 to 100,"CCc1cccc(-c2cn([C@H]3C[C@H](CNc4ccc5c(c4)C(=O)N(C4CCC(=O)NC4=O)C5=O)C3)nc2C2CC2)n1 (stereo partly drawn) [GS-069, 5-(((trans-3-(3-Cyclopropyl-4-(6-ethylpyridin-2-yl)-1H-pyrazol-1-yl)cyclobutyl)methyl)amino)-2-(2,6-dioxopiperidin-3-yl)isoindoline-1,3-dione]"
> 1000,10 to 100,> 1000,10 to 100,"Cc1cccc(-c2cn([C@H]3C[C@H](CNc4ccc5c(c4)C(=O)N(C4CCC(=O)NC4=O)C5=O)C3)nc2C2CCOCC2)n1 (stereo partly drawn) [GS-071, 2-(2,6-Dioxopiperidin-3-yl)-5-(((trans-3-(4-(6-methylpyridin-2-yl)-3-(tetrahydro-2H-pyran-4-yl)-1H-pyrazol-1-yl)cyclobutyl)methyl)amino)isoindoline-1,3-dione]"
